Test results published in article doi:10.1101/2024.08.25.609621 (bioRxiv, 2024).
Values joined by “and” are separate entries in the source; they are usually repeats but may differ in a detail not shown here. Identical values can stand only once.

Tests used:
[1] = target: SARS-CoV-2 NSP3 macrodomain (Mac1) (Severe acute respiratory syndrome coronavirus 2, UniProt P0DTD1); assay: biochemical; assay type: binding; settings: for Hill slope: HTRF dose-response fit, Mac1; for SARS CoV-2 macrodomain HTRF assay: Hillslope: dose-response fit
[2] = target: SARS-CoV-2 NSP3 macrodomain (Mac1), P43 crystal form (Severe acute respiratory syndrome coronavirus 2, UniProt P0DTD1); assay type: binding; settings: for PanDDA run, DMSO background map: 1-BDC: event 1; for 1-BDC: PanDDA background density correction; for Total number of conformations: ligand conformations modeled in Mac1 crystal structure; for 2*(1-BDC) (%): occupancy estimate from PanDDA BDC; for X-ray crystallography: Binding site: site where the ligand is bound in the X-ray crystal structure

Row | Compound | Hill slope [1] | SARS CoV-2 macrodomain HTRF assay: Hillslope [1] | Occupancy difference (refined_occupancy - 2*(1-BDC)) [2] | Refined ligand occupancy (%) [2] [%] | PanDDA run, DMSO background map: 1-BDC [2] | 1-BDC [2] | Comment ([2]; comment on ligand modeling / Phe132 loop density) | Total number of conformations [2] | 2*(1-BDC) (%) [2] [%] | X-ray crystallography: Binding site [2] | IC50 ([1]; dose-response, read-out: SARS CoV-2 macrodomain HTRF assay: IC50) [µM]
1 | CC1(C)CCN(c2ncnc3[nH]ccc23)C(CO)C1 (stereo not drawn) [AVI-5994] | 1.2 | 1.2 | 0 | 46 | 0.23 and 0.27 | 0.23 | Weak density for open state of Phe132 loop | 2 | 46 | Adenosine | 
2 | O[C@H]1CC[C@H]2CCN(c3ncnc4[nH]ccc34)[C@H]21 [AVI-5997] | 1.2 | 1.2 | 12 | 70 | 0.28 and 0.29 | 0.29 |  | 1 | 58 | Adenosine | 
3 | OCC1C=CCCN1c1ncnc2[nH]ccc12 (stereo not drawn) [AVI-5998] | 1.2 | 1.2 | 0 | 38 | 0.21 and 0.19 | 0.19 |  | 1 | 38 | Adenosine | 
4 | CC(C)(C)C1CCCN1c1ncnc2[nH]ccc12 (stereo not drawn) [AVI-6000] |  |  | 0 | 14 | 0.07 | 0.07 |  | 1 | 14 | Adenosine | > 1000
5 | OCC1CC=CCN1c1ncnc2[nH]ccc12 (stereo not drawn) [AVI-6002] | 1.3 | 1.3 | 18 | 50 | 0.21 and 0.16 | 0.16 |  | 1 | 32 | Adenosine | 
6 | OC1(CNc2ncnc3[nH]ccc23)CCCCC1 [AVI-6217] | 1.1 | 1.1 | 16 | 60 | 0.22 | 0.22 |  | 1 | 44 | Adenosine | 
7 | OC1CCC(O)(CNc2ncnc3[nH]ccc23)CC1 (stereo not drawn) [AVI-6220] | 1.3 | 1.3 | 0 | 14 | 0.07 | 0.07 |  | 2 | 14 | Adenosine | 
